{"source": "patent US20060235062A1", "about": "“Novel heterocyclic analogs of diphenylethylene compounds” (THERACOS, INC., priority 2002, published 2006)", "key": {"COX-2": {"molecular_target": "T1, COX-2 (Mus musculus, UniProt Q05769)", "T1 sequence (Q05769 18-604)": "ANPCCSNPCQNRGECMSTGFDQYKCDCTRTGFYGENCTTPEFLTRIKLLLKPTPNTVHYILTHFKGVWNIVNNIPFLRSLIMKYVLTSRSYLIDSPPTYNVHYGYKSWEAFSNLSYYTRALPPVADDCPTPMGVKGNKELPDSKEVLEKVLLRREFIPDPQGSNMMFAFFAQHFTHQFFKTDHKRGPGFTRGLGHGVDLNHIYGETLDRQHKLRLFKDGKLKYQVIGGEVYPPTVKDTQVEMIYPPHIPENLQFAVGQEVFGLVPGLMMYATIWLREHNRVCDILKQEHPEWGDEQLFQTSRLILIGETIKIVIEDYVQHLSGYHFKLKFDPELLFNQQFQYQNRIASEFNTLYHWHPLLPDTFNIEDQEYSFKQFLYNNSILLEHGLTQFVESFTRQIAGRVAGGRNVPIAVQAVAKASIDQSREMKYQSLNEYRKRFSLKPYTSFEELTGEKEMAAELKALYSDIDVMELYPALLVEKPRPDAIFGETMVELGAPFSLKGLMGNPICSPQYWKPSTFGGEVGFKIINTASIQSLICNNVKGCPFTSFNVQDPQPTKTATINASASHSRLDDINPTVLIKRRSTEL", "experiment": "LPS-induced COX-2 activity in RAW cells (PGE2 production)", "format": "cell-based", "settings": "0.1-100 μM, FIG. 12", "method": "(§1) After 1 hour LPS (0.1 pg/mL) was added and cells were incubated an additional 6 hours. Cell supernatant was then collected, aliquoted and frozen at −70° C., and aliquots used to determine COX-2 and COX-1 activity. Compound 11, but not rosiglitazone, inhibited the activity of COX-2 (as measured by PGE2 production in a 50 μl sample)."}, "COX-1": {"molecular_target": "T2, COX-1 (Mus musculus, UniProt P22437)", "T2 construct": "aliquots used to determine COX-2 and COX-1 activity; endogenous in cells; host or cells: RAW (RAW 264.7) cells", "T2 sequence (P22437 27-602)": "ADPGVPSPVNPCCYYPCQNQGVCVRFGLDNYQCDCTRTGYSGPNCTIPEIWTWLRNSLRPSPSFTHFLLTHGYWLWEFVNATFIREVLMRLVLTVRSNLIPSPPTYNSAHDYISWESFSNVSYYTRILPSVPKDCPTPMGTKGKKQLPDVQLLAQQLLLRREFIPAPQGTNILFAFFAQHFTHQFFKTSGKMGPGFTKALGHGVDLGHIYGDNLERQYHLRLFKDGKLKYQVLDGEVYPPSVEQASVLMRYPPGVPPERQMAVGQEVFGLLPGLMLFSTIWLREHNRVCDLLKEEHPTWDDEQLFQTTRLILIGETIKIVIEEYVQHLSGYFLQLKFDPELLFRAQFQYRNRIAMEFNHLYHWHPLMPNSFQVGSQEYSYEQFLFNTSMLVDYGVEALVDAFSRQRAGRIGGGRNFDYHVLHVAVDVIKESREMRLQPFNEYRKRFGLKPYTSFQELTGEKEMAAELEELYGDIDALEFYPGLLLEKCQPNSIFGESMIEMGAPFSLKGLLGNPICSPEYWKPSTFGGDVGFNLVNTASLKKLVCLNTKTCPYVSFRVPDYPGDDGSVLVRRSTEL", "experiment": "COX-1 activity in RAW cells", "format": "cell-based", "settings": "0.1-100 μM", "method": "as §1"}, "3T3-L1 adipocytes": {"tested_on": "3T3-L1 adipocytes", "experiment": "Glucose uptake in differentiated 3T3-L1 adipocytes", "format": "cell-based", "method": "Referring to FIG. 8 glucose uptake in 3T3-L1 differentiated adipocytes was measured after treatment with the test compound. The assay was conducted according to the method of Tafuri, Endocrinology, 137, 4706-4712 (1996). The serum-starved cells were treated with the test compound for 48 hours at different concentrations, then washed and incubated in glucose-free media for 30 minutes at 37° C. Then ^14C-deoxyglucose was added and uptake was monitored for 30 minutes under incubation. After washing, the cells were lysed (0.1% SIDS) and counted.\nBasal glucose uptake was measured in differentiated 3T3-L1 adipocytes following the protocol of Tafuri (6) with modifications. Briefly, 3T3-L1 fibroblasts, obtained from ATCC (Manassas, Va.), were differentiated to adipocytes by treating cells with porcine insulin (1 μg/ml for 4 days), dexamethasone (0.25 μM for first 2 days) and isobutyl methyl xanthine (IBMX, 0.5 mM for first 2 days) (all from Sigma Chemicals, St Louis, Mo.) following the protocol of Frost and Lane (7). Differentiated adipocytes were incubated in Dulbecco's Modified Eagle Medium (DMEM) containing 10% fetal bovine serum (GibcoBRL, Gaithersburg, Md.) with various concentrations of Compound 11 or vehicle (0.1% DMSO) for 48 h in 24-well plates, in triplicate. Cells were washed with phosphate buffered saline (PBS, 150 mM NaCl, 1 mM KH2PO4, 3 mM Na2HPO4; pH 7.4) and incubated in glucose-free DMEM for 2 h at 37° C. The cells were washed 3 times with Krebs Ringer Phosphate Buffer (KRP). Glucose uptake was initiated by addition of 0.25 μCi 2-^14C(U)-deoxy-D-glucose (300 μCi/mmol, American Radiolabeled Chemicals Inc., St Louis, Mo.) per well and the cells incubated for 10 min at room temperature in the presence of 0.1 mmol cold 2-deoxy-D-glucose. Finally, the cells were washed three times with ice-cold PBS containing 10 mM cold glucose, lysed with 0.5% SDS, and counted in a scintillation counter (Beckman LS6500)."}, "HepG2 cells": {"tested_on": "HepG2 cells", "experiment": "Glycogen synthesis in HepG2 cells", "format": "cell-based"}, "3T3-L1 fibroblasts": {"tested_on": "3T3-L1 fibroblasts", "experiment": "Adipogenesis (triglyceride accumulation) in 3T3-L1 fibroblasts", "settings": "3T3-L1 fibroblasts, 0.1, 1, 10 μM, no dexamethasone, insulin, IBMX, FIG. 23A", "description": "After two days of growth in 6-well plates, cells were treated either with vehicle (0.1% DMSO) or with compounds for ten days. Fresh medium with compounds or vehicle was replenished every 48 h. Cells were washed with PBS twice and fixed in 10% formalin (Sigma) in PBS. After washing in PBS, cells were stained with freshly diluted Oil Red O in isopropanol for 1 h at room temperature. The cells were washed five times with PBS and visualized under an Olympus BH2 microscope. Quantitative accumulation of triglyceride was also measured under similar experimental conditions, except in this case cells were plated in 100-mm tissue culture dishes. Triglyceride was extracted with methanol:chloroform (2:1) mixture. […] Extracted triglyceride was measured by a colorimetric assay (GPO-Trinder, Sigma) according to manufacturer instructions.\nAfter 14 days cells were stained with Oil Red O, counterstained with methylene blue for visual assessment (FIG. 23B) and assayed for triglyceride accumulation."}, "db/db mice": {"tested_on": "db/db mice", "settings": "db/db mice, 50 mg/kg/day orally, 14 days, FIG. 16A"}, "NF-kB p65": {"tested_on": "NF-kB p65", "experiment": "NF-kB p65 activation in LPS-stimulated RAW cells (ELISA)", "format": "cell-based", "settings": "10 μM, 1 μg/ml LPS 15 min, FIG. 15"}, "IkappaB": {"tested_on": "IkappaB", "experiment": "LPS-stimulated phosphorylation of IkappaB in RAW 264.7 cells", "format": "cell-based", "settings": "RAW 264.7 cells, 3, 10 or 30, LPS plus IFN-gamma, anti-phospho-IkappaB blot"}, "PPAR-gamma": {"molecular_target": "T3, PPAR-gamma (Homo sapiens, UniProt P37231)", "T3 sequence (P37231 1-505)": "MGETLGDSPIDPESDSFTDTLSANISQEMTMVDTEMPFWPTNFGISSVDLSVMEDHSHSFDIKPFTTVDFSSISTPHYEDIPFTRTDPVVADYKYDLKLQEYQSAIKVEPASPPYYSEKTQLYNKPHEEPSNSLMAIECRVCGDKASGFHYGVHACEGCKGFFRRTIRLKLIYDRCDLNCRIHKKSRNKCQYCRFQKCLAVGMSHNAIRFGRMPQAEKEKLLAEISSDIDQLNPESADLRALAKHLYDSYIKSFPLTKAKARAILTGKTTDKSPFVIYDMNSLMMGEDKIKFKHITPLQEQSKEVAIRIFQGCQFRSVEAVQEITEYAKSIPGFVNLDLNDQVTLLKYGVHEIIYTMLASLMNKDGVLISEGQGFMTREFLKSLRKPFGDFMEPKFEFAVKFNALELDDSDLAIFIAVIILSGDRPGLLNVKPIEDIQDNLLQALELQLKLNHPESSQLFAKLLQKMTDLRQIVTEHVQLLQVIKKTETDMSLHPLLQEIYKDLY", "settings": "Rocchi et al, Mol Cell 8:737-47, 2001; cited from earlier work"}}}
{"compound": "CN(CCOc1ccc(CC2SC(=O)NC2=O)cc1)c1ccccn1", "note": "(stereo not drawn) [rosiglitazone, reference compound]", "values": [{"measurement": "inhibition of COX-2 activity (PGE2 production)", "setting": "COX-2", "result": "not"}, {"measurement": "inhibition of COX-1 activity", "setting": "COX-1", "result": "Neither compound inhibited"}, {"measurement": "effect on insulin-stimulated glucose uptake", "setting": "3T3-L1 adipocytes; 5 μM with increasing insulin, FIG. 20B", "result": "additive, not synergistic"}, {"measurement": "% Glucose uptake 0.1 μm", "setting": "3T3-L1 adipocytes; 0.1 μm, average of quadruplicate ± SD", "result": "204.2 ± 8.5 % basal of the non treated cells"}, {"measurement": "% Glucose uptake 1.0 μm", "setting": "3T3-L1 adipocytes; 1.0 μm, average of quadruplicate ± SD", "result": "214.7 ± 36.5 % basal of the non treated cells"}, {"measurement": "glycogen synthesis, decrease", "setting": "HepG2 cells; HepG2, 10 μM, 48 h, FIG. 25A", "result": 0.9, "unit": "fold"}, {"measurement": "increase in glycogen synthesis over baseline", "setting": "HepG2 cells; HepG2, concentrations higher than 30 μM, ± SD, data not shown", "result": "1.4±0.06", "unit": "fold"}, {"measurement": "maximal triglyceride accumulated, increase over control", "setting": "3T3-L1 fibroblasts", "result": 9.22, "unit": "fold"}, {"measurement": "blood glucose lowering effect", "setting": "db/db mice", "result": "dramatic, comparable blood glucose lowering effects"}, {"measurement": "inhibition of the activation of NF-kB (p65)", "setting": "NF-kB p65", "result": "did not inhibit"}, {"measurement": "inhibition of the phosphorylation of IkappaB", "setting": "IkappaB", "result": "not"}]}
{"compound": "CC(C)C[C@H](NC(=O)OCC1c2ccccc2-c2ccccc21)C(=O)O", "note": "[FMOC-L-Leucine]", "values": [{"measurement": "less affinity for PPAR-gamma", "setting": "PPAR-gamma", "result": "approximately 400 fold"}]}
